{
  "source": "patent US20210324092A1",
  "about": "“MONOCLONAL ANTIBODY COMPOSITION FOR TREATMENT OF PHILADELPHIA CHROMOSOME POSITIVE ACUTE LYMPHOBLASTIC LEUKEMIA” (priority 2018, published 2021)",
  "tested_on": "BCR-ABL+ pre-B cells",
  "assay": "Rescue of BCR-ABL+ pre-B cells from imatinib-induced cell death; cell cycle analysis (FIGS. 6 and 7)",
  "format": "cell-based, mice",
  "conditions": "for effect on BCR-ABL inhibitor (imatinib)-induced cell death: Imatinib 1 μM, IL7 2.5 ng/ml, CXCL12 100 ng/ml, AMD3100 10 μM",
  "data": [
    {"molecule": "c1cc(CN2CCCNCCNCCCNCC2)ccc1CN1CCCNCCNCCCNCC1", "note": "[AMD3100, reference compound]", "values": [
      {"measurement": "effect on BCR-ABL inhibitor (imatinib)-induced cell death", "result": "did not affect imatinib treatment"}
    ]},
    {"molecule": "TSLP: the ligand for CRLF2", "values": [
      {"measurement": "effect on BCR-ABL inhibitor (imatinib)-induced cell death", "result": "did not affect imatinib treatment"}
    ]},
    {"molecule": "IL7: interleukin 7, a cytokine which is important for B and T cell development (protein, UniProt P13232 26-177, looked up) Interleukin-7: DCDIEGKDGKQYESVLMVSIDQLLDSMKEIGSNCLNNEFNFFKRHICDANKEGMFLFRAARKLRQFLKMNSTGDFDLHLLKVSEGTTILLNCTGQVKGRKPAALGEAQPTKSLEENKSLKEQKKLNDLCFLKRLLQEIKTCWNKILMGTKEH", "values": [
      {"measurement": "effect on BCR-ABL inhibitor (imatinib)-induced cell death", "result": "counteracted the BCR-ABL inhibitor-induced cell death"},
      {"measurement": "cell cycling under imatinib treatment", "setting": "imatinib in the presence of IL7", "result": "restored cell cycling"}
    ]}
  ]
}
